Measured values: patent publication US10738028B2, “Spiro three-membered ring, spiro five-membered ring peptide deformylase inhibitor and use thereof in antibacteria and anti-tumor” (priority 2016, dated 2020)

Assays:
Type in all cases: cell-based
[1] = tested on: Enterococcus faecalis (EFA); assay: MIC, two-fold agar dilution (CLSI), clinical isolates
Outline: (§1)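 Susceptibility was tested using CLSI two-fold agar dilution against the strains examined.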

[2] = tested on: Enterococcus faecium (EFM); assay: as above
Outline: as §1

[3] = tested on: Escherichia coli (including ESBLs, non-ESBLs); assay: as above
Outline: as §1

[4] = tested on: Moraxella catarrhalis (BCA); assay: as above
Outline: as §1

[5] = tested on: Streptococcus pneoumoniae (SPN); assay: as above
Outline: as §1

[6] = tested on: methicillin-resistant Staphylococcus aureus (MRSA); assay: as above
Outline: as §1

[7] = tested on: methicillin-resistant Staphylococcus epidermidis (MRSE); assay: as above
Outline: as §1

[8] = tested on: methicillin-sensitive Staphylococcus aureus (MSSA); assay: as above
Outline: as §1

[9] = tested on: methicillin-sensitive Staphylococcus epidermidis (MSSE); assay: as above
Outline: as §1

[10] = tested on: HCT-116 colorectal cancer cell line; assay: CCK-8 proliferation inhibition; conditions: concentration of 30 μM, 72 hours, CCK-8
Outline: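 HCT-116 cells, seeded at 2000 cells/well in McCoy's 5A with 10% newborn bovine serum, were cultured overnight at 37° C., 5% CO2, then exposed to compound dilutions in medium for 72 hours. Viability was read with 1:10 diluted CCK-8; controls received 1‰ DMSO.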

[11] = tested on: A549 lung cancer cell line; assay: CCK-8 proliferation inhibition; conditions: concentration of 30 μM
Outline: (§2)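 Plating at 2000 cells/well, then incubation overnight at 37° C. Next, a range of compound concentrations for 72 hours (control 1‰ DMSO). Finally, medium decanted and CCK-8 diluted 1:10 added.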

[12] = tested on: BEL-7402 liver cancer cell line; assay: CCK-8 proliferation inhibition; conditions: concentration of 30 μM
Outline: as §2

[13] = tested on: MGC-803 gastric cancer cell line; assay: CCK-8 proliferation inhibition; conditions: Homo sapiens, MGC-803, 72 h, concentration of 30 μM
Outline: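 Cells were seeded at 2000 cells/well and cultured overnight at 37° C, 5% CO2, then exposed for 72 hours to compounds diluted from DMSO stocks. Controls received 1‰ DMSO. CCK-8 (1:10 diluted) replaced the medium. MGC-803 and Jurkat were grown in 1640, PC3 in F12, and MCF-7 in DMEM high glucose, each with 10% newborn bovine serum.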

## CCCC[C@H](CC(=O)NO)C(=O)N1CC2(CC2)C[C@H]1C(=O)Nc1nc(C(F)(F)F)cs1 [Example 57]
[1]; clinical isolate EFA 15-1
  Anti-bacterial activity (MIC), strain EFA 15-1: 8 µg/mL
[1]; clinical isolate EFA 15-2
  Anti-bacterial activity (MIC), strain EFA 15-2: 8 µg/mL
[1]; clinical isolate EFA 15-3
  Anti-bacterial activity (MIC), strain EFA 15-3: 8 µg/mL
[1]; clinical isolate EFA 15-4
  Anti-bacterial activity (MIC), strain EFA 15-4: 8 µg/mL
[1]; clinical isolate EFA 15-5
  Anti-bacterial activity (MIC), strain EFA 15-5: 8 µg/mL
[1]; clinical isolate EFA 15-6
  Anti-bacterial activity (MIC), strain EFA 15-6: 8 µg/mL
[1]; clinical isolate EFA 15-9
  Anti-bacterial activity (MIC), strain EFA 15-9: 8 µg/mL
[2]; clinical isolate EFM 15-1
  Anti-bacterial activity (MIC), strain EFM 15-1: 1 µg/mL
[2]; clinical isolate EFM 15-2
  Anti-bacterial activity (MIC), strain EFM 15-2: 2 µg/mL
[2]; clinical isolate EFM 15-3
  Anti-bacterial activity (MIC), strain EFM 15-3: 0.25 µg/mL
[2]; clinical isolate EFM 15-4
  Anti-bacterial activity (MIC), strain EFM 15-4: 1 µg/mL
[2]; clinical isolate EFM 15-5
  Anti-bacterial activity (MIC), strain EFM 15-5: 0.5 µg/mL
[2]; clinical isolate EFM 15-6
  Anti-bacterial activity (MIC), strain EFM 15-6: 4 µg/mL
[3]; clinical isolate ECO+ 15-1
  Anti-bacterial activity (MIC), strain ECO+ 15-1: 32 µg/mL
[3]; clinical isolate ECO+ 15-2
  Anti-bacterial activity (MIC), strain ECO+ 15-2: > 32 µg/mL
[3]; clinical isolate ECO+ 15-3
  Anti-bacterial activity (MIC), strain ECO+ 15-3: > 32 µg/mL
[3]; clinical isolate ECO+ 15-4
  Anti-bacterial activity (MIC), strain ECO+ 15-4: > 32 µg/mL
[3]; clinical isolate ECO− 15-1
  Anti-bacterial activity (MIC), strain ECO− 15-1: > 32 µg/mL
[3]; clinical isolate ECO− 15-2
  Anti-bacterial activity (MIC), strain ECO− 15-2: > 32 µg/mL
[3]; clinical isolate ECO− 15-3
  Anti-bacterial activity (MIC), strain ECO− 15-3: > 32 µg/mL
[3]; clinical isolate ECO− 15-4
  Anti-bacterial activity (MIC), strain ECO− 15-4: > 32 µg/mL
[4]; clinical isolate BCA 14-1
  Anti-bacterial activity (MIC), strain BCA 14-1: 0.5 µg/mL
[4]; clinical isolate BCA 14-4
  Anti-bacterial activity (MIC), strain BCA 14-4: 0.5 µg/mL
[4]; clinical isolate BCA 14-5
  Anti-bacterial activity (MIC), strain BCA 14-5: 0.5 µg/mL
[4]; clinical isolate BCA 14-6
  Anti-bacterial activity (MIC), strain BCA 14-6: 1 µg/mL
[4]; clinical isolate BCA 14-7
  Anti-bacterial activity (MIC), strain BCA 14-7: 0.25 µg/mL
[4]; clinical isolate BCA 14-8
  Anti-bacterial activity (MIC), strain BCA 14-8: 0.25 µg/mL
[4]; clinical isolate BCA 14-10
  Anti-bacterial activity (MIC), strain BCA 14-10: 0.25 µg/mL
[5]; clinical isolate SPN 16-2
  Anti-bacterial activity (MIC), strain SPN 16-2: 2 µg/mL
[5]; clinical isolate SPN 16-4
  Anti-bacterial activity (MIC), strain SPN 16-4: 0.25 µg/mL
[6]; clinical isolate MRSA 15-1
  Anti-bacterial activity (MIC), strain MRSA 15-1: 0.5 µg/mL
[6]; clinical isolate MRSA 15-2
  Anti-bacterial activity (MIC), strain MRSA 15-2: 0.5 µg/mL
[6]; clinical isolate MRSA 15-3
  Anti-bacterial activity (MIC), strain MRSA 15-3: 0.5 µg/mL
[6]; clinical isolate MRSA 15-4
  Anti-bacterial activity (MIC), strain MRSA 15-4: 0.5 µg/mL
[7]; clinical isolate MRSE 15-1
  Anti-bacterial activity (MIC), strain MRSE 15-1: 0.125 µg/mL
[7]; clinical isolate MRSE 15-2
  Anti-bacterial activity (MIC), strain MRSE 15-2: 0.125 µg/mL
[7]; clinical isolate MRSE 15-3
  Anti-bacterial activity (MIC), strain MRSE 15-3: 0.125 µg/mL
[7]; clinical isolate MRSE 15-7
  Anti-bacterial activity (MIC), strain MRSE 15-7: 0.25 µg/mL
[8]; clinical isolate MSSA 15-3
  Anti-bacterial activity (MIC), strain MSSA 15-3: 0.5 µg/mL
[8]; clinical isolate MSSA 15-4
  Anti-bacterial activity (MIC), strain MSSA 15-4: 0.125 µg/mL
[8]; clinical isolate MSSA 15-5
  Anti-bacterial activity (MIC), strain MSSA 15-5: 0.125 µg/mL
[8]; clinical isolate MSSA 15-6
  Anti-bacterial activity (MIC), strain MSSA 15-6: 0.125 µg/mL
[9]; clinical isolate MSSE 15-3
  Anti-bacterial activity (MIC), strain MSSE 15-3: 0.25 µg/mL
[9]; clinical isolate MSSE 15-4
  Anti-bacterial activity (MIC), strain MSSE 15-4: 0.125 µg/mL
[9]; clinical isolate MSSE 15-5
  Anti-bacterial activity (MIC), strain MSSE 15-5: 0.125 µg/mL
[9]; clinical isolate MSSE 15-6
  Anti-bacterial activity (MIC), strain MSSE 15-6: 0.06 µg/mL
[10]; Homo sapiens, HCT-116, 72 h, read-out: HCT116 inhibition rate/%
  inhibition at 30 µM: > 50%
[10]; 30 µM
  HCT116 inhibition rate/%: 52%
[11]; Homo sapiens, A549, 72 h
  inhibition at 30 µM: > 50%
[11]; 72 hours, 30 µM
  Inhibition of proliferation, Lung cancer A549: 52%
[12]; Homo sapiens, Bel-7402, 72 h
  inhibition at 30 µM: > 50%
[12]; 72 hours, 30 µM
  Inhibition of proliferation, Liver cancer BEL-7402: 57%
[13]
  inhibition at 30 µM: 34%
